Results published in PubChem BioAssay AID2060495 (Molecular Pharmacology Branch, DTP, NCI, 2025).
pIC50: −log10 of the molar value.

System: 521955-158-R2-J5-PDC complex spheroid viability
Experiment: Anticancer human tumor 521955-158-R2-J5-PDC patient-derived pancreatic carcinoma cell line growth inhibition [GQUAD]
Conditions: for pIC50: curve of first compound; for viability, T/C: stronger effect = lower value
Text: DNA G-quadruplex Stabilizer Agents in Combinations in Complex Spheroids
A high-throughput screen of multi-cell type tumor spheroids was designed to identify active combinations of DNA G-quadruplex stabilizer agents and targeted small molecules. Complex spheroids include a stromal component modeled by human endothelial cells (HUVEC) and fibroblasts modeled by human mesenchymal stem cells (MSCs). The concentration ranges selected for each drug and investigational agent were based upon clinically achievable concentrations if the clinical Cmax of the agent was known.
Compounds. The drugs and investigational agents: pidnarulex (CX-5461; NSC782164), APTO-253 (NSC789042), BRACO-19 (NSC847499), peposertib (NSC802822), ceralasertib (NSC780249), elimusertib (NSC800525), camonsertib (NSC841442), AZD-1390 (NSC803789), olaparib (NSC753686), talazoparib (NSC767125), ART-558 (NSC835418), sotorasib (NSC818433), MRTX-1133 (NSC836407), SN-38 (NSC673596), topotecan (NSC609699), etoposide (NSC141540), doxorubicin (NSC123127), gemcitabine (NSC613327), 5-fluorouracil (NSC19893), paclitaxel (NSC125973), vemurafenib (NSC761431), panobinostat (NSC761190), R-306465 (JNJ-16241199; NSC773264), adavosertib (NSC754352), TP-3654 (NSC805149), carboplatin (NSC241240), KSQ-4279 (NSC840948), and staurosporine (NSC755774) were obtained from the National Cancer Institute (NCI) Developmental Therapeutics Program Chemical Repository (34). The FDA-approved anticancer drug set is available from the NCI Developmental Therapeutics Program. […] The stock solutions were prepared in dimethyl sulfoxide (DMSO, Sigma-Aldrich, St. Louis, MO, cat. D2650) at 800-fold the tested concentration and stored at -70 degrees C prior to their use. All drugs and investigational agents were tested over a range starting from a high concentration at or near the clinical Cmax and decreasing in half-log increments. If the clinical Cmax for an agent had not been determined, the highest concentration tested was 10 microM.
2.3 Cell Culture. All cells were maintained in an incubator at 37 degrees C and 5% CO2 with 95% humidity. The PDC lines were cultured according to standard operating procedures established by the NCI PDMR. All PDCs were thawed and cultured in Matrigel-coated flasks prepared with a working solution of 1X Ham's F-12 nutrient mix, without supplementation (Invitrogen, cat. 11765054), 100 U/mL penicillin-streptomycin (Invitrogen, cat. 15140122), and 2.5% Matrigel (Corning Inc., cat. 354248) for the first three passages. The 857933-349-R-J2-PDC line was cultured in 6C/Colon 1B media, which includes advanced DMEM/F-12 (Thermo Fisher Scientific, cat. 12634028), 10 mM HEPES (Thermo Fisher Scientific, cat. 15630080), 1X GlutaMAX supplement (Thermo Fisher Scientific, cat. 35050061), 0.1 mg/mL primocin (InvivoGen, cat. ant-pm-2), 10% defined fetal bovine serum, heat inactivated (HyClone Laboratories Inc., cat. SH30070.03HI), 50% L-WRN conditioned media (ATCC, cat. CRL-3276), 1.25 mM N-Acetyl-L-cysteine (Sigma-Aldrich, cat. A9165), 10 mM nicotinamide (Sigma-Aldrich, cat. N0636), 1X B-27 supplement (Thermo Fisher Scientific, cat. 17504044), 1X N-2 supplement (Thermo Fisher Scientific, cat. 17502048), 10 microM Y-27632 dihydrochloride (Tocris Bioscience, cat. 1254), and 50 ng/mL human EGF recombinant protein (Thermo Fisher Scientific, cat. PHG0311). The 485176-168-R4-J1-PDC line was cultured in Panc media, which includes all 6C/Colon 1B media components plus 100 ng/mL human FGF-10 (Thermo Fisher Scientific, cat. 100-26), 500 nM SB-431542 (Selleckchem, cat. S1067), and gastrin (Tocris, cat. 3006).
[…]

[1] = second compound 0.0316 µM, first compound 0.0316 µM
[2] = second compound 0.0316 µM, first compound 0.1 µM
[3] = second compound 0.0316 µM, first compound 0.316 µM
[4] = second compound 0.0316 µM, first compound 1 µM
[5] = second compound 0.0316 µM, first compound 3.16 µM
[6] = second compound 0.0316 µM, first compound 10 µM
[7] = second compound 0.1 µM, first compound 0.0316 µM
[8] = second compound 0.1 µM, first compound 0.1 µM
[9] = second compound 0.1 µM, first compound 0.316 µM
[10] = second compound 0.1 µM, first compound 1 µM
[11] = second compound 0.1 µM, first compound 3.16 µM
[12] = second compound 0.1 µM, first compound 10 µM
[13] = second compound 0.316 µM, first compound 0.0316 µM
[14] = second compound 0.316 µM, first compound 0.1 µM
[15] = second compound 0.316 µM, first compound 0.316 µM
[16] = second compound 0.316 µM, first compound 1 µM
[17] = second compound 0.316 µM, first compound 3.16 µM
[18] = second compound 0.316 µM, first compound 10 µM
[19] = second compound 1 µM, first compound 0.0316 µM
[20] = second compound 1 µM, first compound 0.1 µM
[21] = second compound 1 µM, first compound 0.316 µM
[22] = second compound 1 µM, first compound 1 µM
[23] = second compound 1 µM, first compound 3.16 µM
[24] = second compound 1 µM, first compound 10 µM
[25] = second compound 3.16 µM, first compound 0.0316 µM
[26] = second compound 3.16 µM, first compound 0.1 µM
[27] = second compound 3.16 µM, first compound 0.316 µM
[28] = second compound 3.16 µM, first compound 1 µM
[29] = second compound 3.16 µM, first compound 3.16 µM
[30] = second compound 3.16 µM, first compound 10 µM
[31] = second compound 10 µM, first compound 0.0316 µM
[32] = second compound 10 µM, first compound 0.1 µM
[33] = second compound 10 µM, first compound 0.316 µM
[34] = second compound 10 µM, first compound 1 µM
[35] = second compound 10 µM, first compound 3.16 µM
[36] = second compound 10 µM, first compound 10 µM
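Further: spheroids exposed to agents for one week before reading.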
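Wherever viability, T/C is given: 100% = DMSO vehicle control viability.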

COc1ncnc(C2CC2)c1-c1ncc2cnn(Cc3ccc(-c4nc(C(F)(F)F)cn4C(C)C)cc3)c2n1 + Cc1[nH]c2ccc(F)cc2c1-c1nc2c3cccnc3c3ncccc3c2[nH]1
pIC50 (second compound 0.0316 µM): < 5.00
pIC50 (second compound 0.1 µM): < 5.00
pIC50 (second compound 0.316 µM): < 5.00
pIC50 (second compound 1 µM): < 5.00
pIC50 (second compound 3.16 µM): < 5.00
pIC50 (second compound 10 µM): < 5.00
viability, T/C [1]: 94%
viability, T/C [2]: 103%
viability, T/C [3]: 107%
viability, T/C [4]: 111%
viability, T/C [5]: 100%
viability, T/C [6]: 143%
viability, T/C [7]: 101%
viability, T/C [8]: 99.2%
viability, T/C [9]: 105%
viability, T/C [10]: 126%
viability, T/C [11]: 104%
viability, T/C [12]: 121%
viability, T/C [13]: 109%
viability, T/C [14]: 97.5%
viability, T/C [15]: 125%
viability, T/C [16]: 112%
viability, T/C [17]: 116%
viability, T/C [18]: 126%
viability, T/C [19]: 97.8%
viability, T/C [20]: 91.9%
viability, T/C [21]: 102%
viability, T/C [22]: 112%
viability, T/C [23]: 133%
viability, T/C [24]: 119%
viability, T/C [25]: 87.7%
viability, T/C [26]: 90.1%
viability, T/C [27]: 98.1%
viability, T/C [28]: 111%
viability, T/C [29]: 125%
viability, T/C [30]: 116%
viability, T/C [31]: 81.8%
viability, T/C [32]: 68.6%
viability, T/C [33]: 101%
viability, T/C [34]: 102%
viability, T/C [35]: 109%
viability, T/C [36]: 116%

CC1COCCN1c1cc(-c2ccnn2C)c2ccnc(-c3ccn[nH]3)c2n1 (stereo unspecified) + Cc1cnc(CNC(=O)c2c(=O)c3ccc(N4CCCN(C)CC4)nc3n3c2sc2ccccc23)cn1
pIC50 (second compound 0.0316 µM): > 7.50
pIC50 (second compound 0.1 µM): > 7.50
pIC50 (second compound 0.316 µM): > 7.50
pIC50 (second compound 1 µM): > 7.50
pIC50 (second compound 3.16 µM): > 7.50
pIC50 (second compound 10 µM): > 7.50
viability, T/C [1]: 33.3%
viability, T/C [2]: 10.8%
viability, T/C [3]: 10.1%
viability, T/C [4]: 11.2%
viability, T/C [5]: 14.3%
viability, T/C [6]: 20.8%
viability, T/C [7]: 28.9%
viability, T/C [8]: 12.6%
viability, T/C [9]: 10.6%
viability, T/C [10]: 10.2%
viability, T/C [11]: 12.9%
viability, T/C [12]: 15.9%
viability, T/C [13]: 29.5%
viability, T/C [14]: 16.6%
viability, T/C [15]: 13.1%
viability, T/C [16]: 11.2%
viability, T/C [17]: 12%
viability, T/C [18]: 14.7%
viability, T/C [19]: 19.1%
viability, T/C [20]: 14.2%
viability, T/C [21]: 10.4%
viability, T/C [22]: 9.64%
viability, T/C [23]: 12.4%
viability, T/C [24]: 10.6%
viability, T/C [25]: 18.9%
viability, T/C [26]: 12.2%
viability, T/C [27]: 11.1%
viability, T/C [28]: 8.14%
viability, T/C [29]: 10.1%
viability, T/C [30]: 8.5%
viability, T/C [31]: 15.4%
viability, T/C [32]: 12.7%
viability, T/C [33]: 10.5%
viability, T/C [34]: 10.9%
viability, T/C [35]: 7.61%
viability, T/C [36]: 8.53%

COc1ccc([C@@H](O)c2cc(-c3ncnc4cc(N5CCOCC5)ccc34)c(F)cc2Cl)nn1 + Cc1cnc(CNC(=O)c2c(=O)c3ccc(N4CCCN(C)CC4)nc3n3c2sc2ccccc23)cn1
pIC50 (second compound 0.0316 µM): 6.53
pIC50 (second compound 0.1 µM): 6.65
pIC50 (second compound 0.316 µM): > 7.50
pIC50 (second compound 1 µM): > 7.50
pIC50 (second compound 3.16 µM): > 7.50
pIC50 (second compound 10 µM): > 7.50
viability, T/C [1]: 79.2%
viability, T/C [2]: 62.5%
viability, T/C [3]: 53.6%
viability, T/C [4]: 30.4%
viability, T/C [5]: 24.8%
viability, T/C [6]: 25.6%
viability, T/C [7]: 65.2%
viability, T/C [8]: 56.8%
viability, T/C [9]: 49.1%
viability, T/C [10]: 31.7%
viability, T/C [11]: 30.7%
viability, T/C [12]: 20.9%
viability, T/C [13]: 37.4%
viability, T/C [14]: 35.3%
viability, T/C [15]: 37%
viability, T/C [16]: 24.5%
viability, T/C [17]: 24.9%
viability, T/C [18]: 18.3%
viability, T/C [19]: 21.7%
viability, T/C [20]: 20.7%
viability, T/C [21]: 18.4%
viability, T/C [22]: 18.2%
viability, T/C [23]: 18.8%
viability, T/C [24]: 18.1%
viability, T/C [25]: 19.5%
viability, T/C [26]: 20.4%
viability, T/C [27]: 18.3%
viability, T/C [28]: 16.9%
viability, T/C [29]: 15.2%
viability, T/C [30]: 12%
viability, T/C [31]: 18.8%
viability, T/C [32]: 18.6%
viability, T/C [33]: 18.3%
viability, T/C [34]: 16.8%
viability, T/C [35]: 14.5%
viability, T/C [36]: 11.6%
